# Measured values as given in patent publication US20260297679A1, “ASSAYS FOR MONITORING INHIBITION OF RNA HELICASE DHX9” (ACCENT THERAPEUTICS, INC., priority 2023, published 2026).
# Columns and labels:
# DHX9 = test: qPCR (SYBR Green) of circular and linear RNAs in HCT116 cells after DHX9 inhibition; assay type: cell-based; conditions: 72 hours, FIG. 1
# Experimental: This experiment was conducted to evaluate circular and linear formats of different mRNA in HCT116 cells after treatment with DHX9 inhibitors by Quantitative Polymerase Chain Reaction (qPCR).
# HCT116 cells were obtained from ATCC (CCL-247) and were grown and assayed in McCoy's 5a growth media supplemented with 10% FBS.
# The cells were plated at pre-determined cell densities in 384-well cell culture plates and incubated overnight in 37° C. at 5% CO2. In a separate plate, reference and test compounds were prepared in DMSO stock solution and serially diluted 3-fold for 10 points. Compound 7 (0.1% final DMSO concentration) was transferred to the cell plate in designated wells, and incubated 37° C. at 5% CO2 for 72 hours.
# RNA was extracted from the cells using the SYBR Green Fast Advanced Cell-to-CT kit according to manufacturer's (Invitrogen) protocol, and cDNA was reverse transcribed using the High Capacity RNA-to-cDNA Kit according to the manufacturer's (Invitrogen) protocol. Using RT^2 SYBR Green ROX qPCR Mastermix (Invitrogen) and thermal cycler conditions for the QuantStudio Thermocycler, qPCR was carried out using the below custom primer sequences obtained at Integrated DNA Technologies (IDT):
# Data analysis was performed by using the QuantStudio Thermocycler software to determine threshold Ct values. ΔCt for circRNA or linRNA is calculated by normalizing the target gene Ct to the GAPDH housekeeping gene Ct for each sample. The inhibition activity is calculated by the following formula, whereas: […]
# ΔCts: Mean of Ct(target gene)−Mean of Ct(GAPDH) for each sample
# ΔCtc: Mean of Ct(target gene)−Mean of Ct(GAPDH) for DMSO control.
# human PBMCs = test: proliferation of human PBMCs (Cell-Titer Glo 2.0); assay type: cell-based; conditions: Compound 1 0.01 μM to 10 μM, 10 days; FIG. 8B
# Experimental: Next, the proliferation of PMBCs was examined following treatment with DHX9 inhibitor using the following assay.
# Human PBMCs were thawed from a frozen cryotube in a 37° C. water bath and transferred to a flask with medium X-Vivo 15 supplemented with 5% Fetal Bovine Serum (FBS), 1% PenStrep, and 1% Glutamax. Flasks were incubated at 37 C for 30 minutes. PBMCs were harvested from flask and counted. PBMCs were diluted in medium and added to 96 well plates at 100,000 PBMCs per well. A stimulus mixture containing IL-15 at 1 ng/well, IL-21 at 5 ng/well, and CD40L at 5 ng/well was added to each well. Test compounds were prepared in DMSO stock solution and serially diluted. Compound (0.1% final DMSO concentration) was added to each well. DMSO was used as a negative control (high control, HC) and staurosporine was used a positive control (low control, LC). Plates were incubated at 37 C for 0, 2, 4, 6, 8, 10 days. Every other day, medium was replenished with stimulus and diluted compounds.
# At each CTG time point, plate was removed from incubator and Cell-Titer Glo 2.0 reagent was added to each well according to manufacturer's (Promega) protocol and detected on an Envision. The inhibition activity was calculated following the formula below:
# % Inhibition=100×(ReadoutHC−ReadoutSample)/(ReadoutHC−ReadoutLC)
# PBMCs were exposed to Compound 1 at concentrations ranging from 0.01 μM to 10 μM for 10 days. […]
Compound,induction of AKR1A1 circRNA (Alu-mediated) (DHX9),induction of BRIP1 circRNA (Alu-mediated) (DHX9),induction of DKC1 circRNA (Alu-mediated) (DHX9),induction of SETD3 circRNA (non-Alu-mediated) (DHX9),proliferation of PBMCs (human PBMCs)
"CS(=O)(=O)Nc1cccc(NC(=O)c2cc(Br)cs2)c1 [Compound 7, 4-bromo-N-(3-methanesulfonamidophenyl)thiophene-2-carboxamide]",induced,induced,induced,no induction of SETD3 cirRNA was observed,
"CN[C@@H]1C[C@H]2O[C@@](C)([C@@H]1OC)n1c3ccccc3c3c4c(c5c6ccccc6n2c5c31)C(=O)NC4 [staustoporine, staurosporine, reference compound]",,,,,inhibited proliferation of PBMCs
